Data reported in patent US6008372A, “Substituted dinaphthylmethyl and diheteroarylmethylacetyl histidine inhibitors of protein farnesyltransferase” (Warner-Lambert Company, priority 1998, dated 1999).
Where a name gives a salt, the structure may show the parent alone. Read-outs that look alike come from different tables or passages of the source.

Legend:
[1] = biological target: T1, rat brain farnesyl protein transferase (Rattus norvegicus, UniProt Q02293+Q04631); test: Protein:farnesyltransferase (PFT/FPT) inhibitory activity assay; type: biochemical
T1 construct: 40-fold purified rat brain farnesyl protein transferase; from tissue; host or cells: rat brain

[2] = test system: Ras farnesylation in H-ras-NIH3T3 cells; test: Gel shift assay: inhibition of Ras farnesylation in H-ras-NIH3T3 cells; type: cell-based; settings: 18-hour incubation, read-out: Inhibition of Ras Farnesylation (Minimum Effective Dose)
Procedure: Twenty-four hours after planting 2×10^6 ras-transformed cells per treatment condition, the farnesylation inhibitor is added at varying concentrations. Following an 18-hour incubation period, cells are lysed in phosphate-buffered saline containing 1% Triton X-100, 0.5% sodium deoxycholate, and 0.1% SDS, pH 7.4 in the presence of several protease inhibitors (PMSF, antipain, leupeptin, pepstatin A, and aprotinin all at 1 μg/mL). Ras protein is immunoprecipitated from the supernatants by the addition of 3 μg v-H-ras Ab-2 (Y13-259 antibody from Oncogene Science). After overnight immunoprecipitation, 30 μL of a 50% protein G-Sepharose slurry (Pharmacia) is added followed by 45-minute incubation. Pellets are resuspended in 2× tris-glycine loading buffer (Novex) containing 5% B-mercaptoethanol and then denatured by 5 minutes boiling prior to electrophoresis on 14% Tris-glycine SDS gels. Using Western transfer techniques, proteins are transferred to nitrocellulose membranes followed by blocking in blocking buffer. Upon overnight incubation with primary antibody (pan-ras Ab-2 from Oncogene Science), an antimouse HRP conjugate secondary antibody (Amersham) is employed for detection of the ras protein. Blots are developed using ECL techniques (Amersham).
The data in Table 1 show farnesyl protein transferase inhibitory activity, and activity in the gel shift assay against ras protein of selected compounds of Formula I.

[3] = Hepes (without 5 mM phosphate), read-out: Farnesyl Protein Transferase Inhibition, Hepes, IC50
[4] = Hepes/5 mM PO4^-3, pH 7.4, read-out: Farnesyl Protein Transferase Inhibition, Hepes/5 mM PO4^-3, IC50

Row | Structure (SMILES) | IC50 [1, 3] | IC50 [1, 4] | minimal effective concentration [2]
1 | COC(=O)[C@H](Cc1c[nH]cn1)NC(=O)C(Cc1ccccc1)Cc1cccc2ccccc12 (stereo partly drawn) [Example 65, (S)-2-(2-Benzyl-3-naphthalen-1-yl-propionylamino)-3-(1H-imidazol-4-yl)-propionic acid, methyl ester] | 1600 nM | 2900 nM | 25 µM
2 | COC(=O)[C@H](Cc1c[nH]cn1)N(C)C(=O)C(Cc1cccc2ccccc12)Cc1cccc2ccccc12 [Example 51, (S)-3-(1H-Imidazol-4-yl-2-[methyl-(3-naphthalen-1-yl-2-naphthalen-1-ylmethyl-propionyl)-amino]-propionic acid, methyl ester, trifluoroacetate] | 2000 nM | 2200 nM | 5 µM
3 | CCNC(=O)[C@H](Cc1c[nH]cn1)NC(=O)C(Cc1cccc2ccccc12)Cc1cccc2ccccc12 [Example 34, (S)-N-[1-Ethylcarbamoyl-2-(1H-imidazol-4-yl)-ethyl]-3-naphthalen-1-yl-2-naphthalen-1-ylmethyl-propionamide] | 2900 nM | 2000 nM | 
4 | NS(=O)(=O)c1ccc(CCNC(=O)[C@H](Cc2c[nH]cn2)NC(=O)C(Cc2cccc3ccccc23)Cc2cccc3ccccc23)cc1 [Example 35] | 15000 nM | 14000 nM | 
5 | NC(=O)[C@H](Cc1c[nH]cn1)NC(=O)C(Cc1cccc2ccccc12)Cc1cccc2ccccc12 [Example 24, (S)-N-[1-Carbamoyl-2-(1H-imidazol-4-yl)-ethyl]-3-naphthalen-1-yl-2-naphthalen-1-ylmethyl-propionamide] | 5300 nM | 3800 nM | 
6 | O=C(N[C@@H](Cc1c[nH]cn1)C(=O)OCCn1ccnc1)C(Cc1cccc2ccccc12)Cc1cccc2ccccc12 [Example 47, (S)-3-[1H-Imidazol-4-yl)-2-(3-naphthalen-1-yl-2-naphthalen-1-ylmethyl-propionylamino)-propionic acid, 2-imidazol-1-yl-ethyl ester] | 1100 nM | 1400 nM | 
7 | C=CCCOC(=O)[C@H](Cc1c[nH]cn1)NC(=O)C(Cc1cccc2ccccc12)Cc1cccc2ccccc12 [Example 48, (S)-3-(1H-Imidazol-4-yl)-2-(3-naphthalen-1-yl-2-naphthalen-1-ylmethyl-propionylamino)-propionic acid, but-3-enyl ester] | 1200 nM | 1300 nM | 
8 | O=C(N[C@H](Cc1c[nH]cn1)C(=O)O)C(Cc1cccc2ccccc12)Cc1cccc2ccccc12 [Example 4, (R)-3-(1H-Imidazol-4-yl)-2-(3-naphthalen-1-yl-2-naphthalen-1-ylmethyl-propionylamino)-propionic acid] | 6100 nM | 19500 nM | 
9 | O=C(N[C@@H](Cc1c[nH]cn1)C(=O)OCCSSCCO)C(Cc1cccc2ccccc12)Cc1cccc2ccccc12 [Example 59, (S)-3-(1H-Imidazol-4-yl)-2-(3-naphthalen-1-yl-2-naphthalen-1-ylmethyl-propionylamino)-propionic acid, 2-(2-hydroxy-ethyldisulfanyl)-ethyl ester] | 1300 nM | 1000 nM | 
10 | O=C(N[C@@H](Cc1c[nH]cn1)C(=O)OC1CCCCC1)C(Cc1cccc2ccccc12)Cc1cccc2ccccc12 [Example 11, (S)-3-(1H-Imidazol-4-yl)-2-(3-naphthalen-1-yl-2-naphthalen-1-ylmethyl-propionylamino)-propionic acid, cyclohexyl ester] | 20000 nM | 14000 nM | 
11 | CC(C)NC(=O)[C@H](Cc1c[nH]cn1)NC(=O)C(Cc1cccc2ccccc12)Cc1cccc2ccccc12 [Example 30, (S)-N-[2-(1H-Imidazol-4-yl)-1-isopropylcarbamoyl-ethyl]-3-naphthalen-1-yl-2-naphthalen-1-ylmethyl-propionamide] | 4600 nM | 3500 nM | 
12 | O=C(N[C@@H](Cc1c[nH]cn1)C(=O)OCc1ccccc1)C(Cc1cccc2ccccc12)Cc1cccc2ccccc12 [Example 10, (S)-3-(1H-Imidazol-4-yl)-2-(3-naphthalen-1-yl-2-naphthalen-1-ylmethyl-propionylamino)-propionic acid, benzyl ester] | 4200 nM | 2900 nM | 

These reach a lower IC50 [1, 3]. Values come first.

Row | IC50 [1, 3] | IC50 [1, 4] | Structure (SMILES) | minimal effective concentration [2]
13 | 1000 nM | 2300 nM | O=C(N[C@@H](Cc1c[nH]cn1)C(=O)O)C(Cc1cccc2ccccc12)Cc1cccc2ccccc12 [Example 3, (S)-3-(1H-Imidazol-4-yl)-2-(3-naphthalen-1-yl-2-naphthalen-1-ylmethyl-propionylamino)-propionic acid] | 
14 | 970 nM | 710 nM | N#CCCNC(=O)[C@H](Cc1c[nH]cn1)NC(=O)C(Cc1cccc2ccccc12)Cc1cccc2ccccc12 [Example 41, (S)-N-[1-(2-Cyano-ethylcarbamoyl)-2-(1H-imidazol-4-yl)-ethyl]-3-naphthalen-1-yl-2-naphthalen-1-ylmethyl-propionamide] | 5 µM
15 | 820 nM | 540 nM | CCC(C)OC(=O)[C@H](Cc1c[nH]cn1)NC(=O)C(Cc1cccc2ccccc12)Cc1cccc2ccccc12 (mixture of isomers) [Example 14, (S)-3-(1H-Imidazol-4-yl)-2-(3-naphthalen-1-yl-2-naphthalen-1-ylmethyl-propionylamino)-propionic acid, (±)-sec-butyl ester] | 
16 | 570 nM | 540 nM | O=C(N[C@@H](Cc1c[nH]cn1)C(=O)OCCOCc1ccccc1)C(Cc1cccc2ccccc12)Cc1cccc2ccccc12 [Example 18, (S)-3-(1H-Imidazol-4-yl)-2-(3-naphthalen-1-yl-2-naphthalen-1-ylmethyl-propionylamino)-propionic acid, 2-benzyloxyethyl ester] | 
17 | 490 nM | 320 nM | N#CCCOC(=O)[C@H](Cc1c[nH]cn1)NC(=O)C(CC1CCCC2CCCCC21)CC1CCCC2CCCCC21 (stereo partly drawn) [Example 45, (S)-2-[3-(Decahydro-naphthalen-1-yl)-2-(decahydro-naphthalen-1-ylmethyl)-propionylamino]-3-(1H-imidazol-4-yl)-propionic acid, 2-cyano-ethyl ester] | 
18 | 440 nM | 370 nM | N#CCCCOC(=O)[C@H](Cc1c[nH]cn1)NC(=O)C(Cc1cccc2ccccc12)Cc1cccc2ccccc12 [Example 54, (S)-3-(1H-Imidazol-4-yl)-2-(3-naphthalen-1-yl-2-naphthalen-1-ylmethyl-propionyiamino)-propionic acid, 3-cyano-propyl ester] | 
19 | 400 nM | 200 nM | C=CCOC(=O)[C@H](Cc1c[nH]cn1)NC(=O)C(Cc1cccc2ccccc12)Cc1cccc2ccccc12 [Example 15, (S)-3-(1H-Imidazol-4-yl)-2-(3-naphthalen-1-yl-2-naphthalen-1-ylmethyl-propionylamino)-propionic acid, allyl ester] | 25 µM
20 | 400 nM | 510 nM | N#CCOC(=O)[C@H](Cc1c[nH]cn1)NC(=O)C(Cc1cccc2ccccc12)Cc1cccc2ccccc12 [Example 58, (S )-3-(1H-Imidazol-4-yl)-2-(3-naphthalen-1-yl-2-naphthalen-1-ylmethyl-propionylamino)-propionic acid, cyanomethyl ester] | 
21 | 400 nM | 250 nM | O=C(N[C@@H](Cc1c[nH]cn1)C(=O)OCC1CC1)C(Cc1cccc2ccccc12)Cc1cccc2ccccc12 [Example 12, (S)-3-(1H-Imidazol-4-yl)-2-(3-naphthalen-1-yl-2-naphthalen-1-ylmethyl-propionylamino)-propionic acid, cyclopropylmethyl ester] | 
22 | 230 nM | 210 nM | C#CCCOC(=O)[C@H](Cc1c[nH]cn1)NC(=O)C(Cc1cccc2ccccc12)Cc1cccc2ccccc12 [Example 44, (S)-3-(1H-Imidazol-4-yl)-2-(3-naphthalen-1-yl-2-naphthalen-1-ylmethyl-propionylamino)-propionic acid, but-3-ynyl ester, trifluoroacetate salt] | 
23 | 200 nM | 240 nM | CNC(=O)[C@H](Cc1c[nH]cn1)NCC(Cc1cccc2ccccc12)Cc1cccc2ccccc12 [Example 63, (S)-3-(1H-Imidazol-4-yl)-N-methyl-2-(3-naphthalen-1-yl-2-naphthalen-1-ylmethyl-propylamino)-propionamide] | 
24 | 80 nM | 70 nM | N#CCCOC(=O)[C@H](Cc1c[nH]cn1)NC(=O)C(Cc1cccc2ccccc12)Cc1cccc2ccccc12 [Example 17, (S)-3-(1H-Imidazol-4-yl)-2-(3-naphthalen-1-yl-2-naphthalen-1-ylmethyl-propionylamino)-propionic acid, 2-cyanoethyl ester] | 10 µM
25 | 70 nM | 60 nM | O=C(N[C@@H](Cc1c[nH]cn1)C(=O)OCCc1ccccc1)C(Cc1cccc2ccccc12)Cc1cccc2ccccc12 [Example 53, (S)-3-(1H-Imidazol-4-yl)-2-(3-naphthalen-1-yl-2-naphthalen-1-ylmethyl-propionylamino)-propionic acid, phenethyl ester] | 25 µM
